The structures appear in SMILES notation. Like-named read-outs stand apart in the source and are kept apart here. Bounds are passed on as bounds.

Experiment [1] concerns epigenetically silenced GFP transgene in LDR cells. Put plainly: locus derepression (LDR) assay, GFP induction. The experiment is classed as cell-based. The procedure:
LDR cells were maintained in DMEM with L-glutamine and high glucose, 1 mM sodium pyruvate, 0.1 mM MEM non-essential amino acids, 1% v/v penicillin-streptomycin and 10% heat inactivated FBS. Cells were seeded on glass bottom chambers at low-medium density and allowed to attach overnight. Compounds were then added for 24h at the indicated dose and cells were imaged under a fluorescent microscope equipped with a camera using a 20 or 40X objective. All images shown were exposed for identical time.

In the next experiment the test system is HBEC-30KT. Description: MTS viability assay. The experiment is classed as cell-based, human. Conditions: Homo sapiens, 96 h, Patient A normal line, 4 days, read-out: Antiproliferative activity IC50, HBEC-30KT. The method, then:
(§1) Lung cancer cells (kindly provided by Dr. John D. Minna, [13, 21]) were maintained in RPMI 1640 media supplemented with 10% FBS. Immortalized normal human bronchial epithelial cells (also provided by Dr. John D. Minna) were cultured in KSFM supplemented with pituitary extract and EGF. For viability assays, cells were plated on 96 well plates and grown overnight. Cells were then exposed to increasing doses of the indicated compounds for 4 days and their viability assayed using the Promega Cell Titer 96 AQueous One kit per the manufacturer’s protocol. All doses were tested in 4–8 replicates. IC50 values were calculated using the in-house software DIVISA.
A general note: Tetrazolium dyes change colour on reduction, which living cells bring about.

The subject of the next experiment is HBEC-34KT. Description: MTS viability assay. The experiment is classed as cell-based, human. Conditions: Homo sapiens, 96 h, Patient B normal line, 4 days, read-out: Antiproliferative activity IC50, HBEC-34KT. The procedure:
as §1

The next experiment concerns the target T1, recombinant HDAC6 (Homo sapiens, UniProt Q9UBN7).
T1 construct: purchased Epigenetek
T1 sequence (Q9UBN7 1-1215): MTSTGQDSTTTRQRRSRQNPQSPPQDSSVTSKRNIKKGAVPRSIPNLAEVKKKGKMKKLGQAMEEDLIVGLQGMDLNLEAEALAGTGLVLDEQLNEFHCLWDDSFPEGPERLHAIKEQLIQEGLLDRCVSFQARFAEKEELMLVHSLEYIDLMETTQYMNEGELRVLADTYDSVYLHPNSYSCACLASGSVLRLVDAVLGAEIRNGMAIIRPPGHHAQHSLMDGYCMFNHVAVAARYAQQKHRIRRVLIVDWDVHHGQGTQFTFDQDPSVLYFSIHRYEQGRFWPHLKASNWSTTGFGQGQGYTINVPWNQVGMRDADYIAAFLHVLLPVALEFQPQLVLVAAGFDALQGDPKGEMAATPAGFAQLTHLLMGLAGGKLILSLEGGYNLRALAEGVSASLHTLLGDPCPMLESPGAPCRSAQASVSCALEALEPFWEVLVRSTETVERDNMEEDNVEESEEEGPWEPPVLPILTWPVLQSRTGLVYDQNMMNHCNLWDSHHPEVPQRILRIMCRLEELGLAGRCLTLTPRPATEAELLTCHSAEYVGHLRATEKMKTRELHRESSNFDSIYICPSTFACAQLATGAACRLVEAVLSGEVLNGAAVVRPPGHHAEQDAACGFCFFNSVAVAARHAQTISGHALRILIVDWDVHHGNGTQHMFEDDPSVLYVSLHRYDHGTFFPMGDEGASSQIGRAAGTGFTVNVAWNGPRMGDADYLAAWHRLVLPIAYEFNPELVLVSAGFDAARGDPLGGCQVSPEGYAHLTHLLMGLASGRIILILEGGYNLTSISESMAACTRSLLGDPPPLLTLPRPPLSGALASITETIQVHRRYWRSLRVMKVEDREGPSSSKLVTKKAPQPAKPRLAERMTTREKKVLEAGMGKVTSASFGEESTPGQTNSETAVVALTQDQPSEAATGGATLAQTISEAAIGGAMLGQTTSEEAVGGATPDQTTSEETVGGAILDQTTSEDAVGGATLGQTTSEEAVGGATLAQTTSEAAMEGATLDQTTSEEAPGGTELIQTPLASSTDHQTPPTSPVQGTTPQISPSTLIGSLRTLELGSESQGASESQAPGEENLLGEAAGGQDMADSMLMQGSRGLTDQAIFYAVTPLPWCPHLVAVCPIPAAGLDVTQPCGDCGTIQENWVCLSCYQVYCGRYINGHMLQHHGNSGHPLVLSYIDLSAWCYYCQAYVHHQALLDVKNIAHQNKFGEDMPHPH
Put plainly: comparative HDAC inhibition assay (Millipore fluorometric kit). The experiment is classed as biochemical. The procedure: (§2) For the direct comparison of HDAC1 vs. HDAC6 inhibition, HDAC activity was analyzed using the HDAC Assay Kit from Millipore (17–356). Briefly, recombinant HDAC1 or recombinant HDAC6 (both purchased from Epigenetek, Purity of HDAC1 is more than 60% and purity HDAC6 is more than 85%). was incubated with the fluorometric HDAC substrate according to the manufacturer’s protocol in the presence of DMSO vehicle or increase compound doses. In a secondary activator reaction, the fluorophore is only cleaved from the deacetylated substrate, allowing for quantification. Fluorescence was quantified on a FLUOstar-Optima or a FLUOstar Omega plate reader (BMG Biosciences).

Another experiment addresses T2, recombinant HDAC1 (Homo sapiens, UniProt Q13547).
T2 construct: purchased Epigenetek
The experiment is described as above. The experiment is classed as biochemical. The note with it: recombinant HDAC1, fluorometric substrate; Table 4. The procedure:
as §2

In another experiment the test system is HCC4018. Put plainly: MTS viability assay. The experiment is classed as cell-based, human. Conditions: for IC50: Homo sapiens, 96 h, Patient B cancer line, MTS, 4 days, read-out: Antiproliferative activity IC50, HCC4018; for Selectivity (HBEC-34KT vs HCC4018): Patient B. The procedure:
(§3) Immortalized normal human bronchial epithelial cells (also provided by Dr. John D. Minna) were cultured in KSFM supplemented with pituitary extract and EGF. For viability assays, cells were plated on 96 well plates and grown overnight. Cells were then exposed to increasing doses of the indicated compounds for 4 days and their viability assayed using the Promega Cell Titer 96 AQueous One kit per the manufacturer’s protocol. All doses were tested in 4–8 replicates. IC50 values were calculated using the in-house software DIVISA.

For the next experiment, the system named is HCC4017. Description: MTS viability assay. The experiment is classed as cell-based, human. The note with it: for IC50: Homo sapiens, HCC4017, 96 h, Patient A cancer line, MTS, 4 days, read-out: Antiproliferative activity IC50, HCC4017; for Selectivity (HBEC-30KT vs HCC4017): Patient A. The method, then:
as §3

[2] abbreviates: Table 3, read-out: HDAC6 pIC50 (converted).
Setting [3] is: recombinant HDAC6, fluorometric substrate, Table 4, read-out: HDAC6 IC50.

T2 sequence (Q13547 whole entry): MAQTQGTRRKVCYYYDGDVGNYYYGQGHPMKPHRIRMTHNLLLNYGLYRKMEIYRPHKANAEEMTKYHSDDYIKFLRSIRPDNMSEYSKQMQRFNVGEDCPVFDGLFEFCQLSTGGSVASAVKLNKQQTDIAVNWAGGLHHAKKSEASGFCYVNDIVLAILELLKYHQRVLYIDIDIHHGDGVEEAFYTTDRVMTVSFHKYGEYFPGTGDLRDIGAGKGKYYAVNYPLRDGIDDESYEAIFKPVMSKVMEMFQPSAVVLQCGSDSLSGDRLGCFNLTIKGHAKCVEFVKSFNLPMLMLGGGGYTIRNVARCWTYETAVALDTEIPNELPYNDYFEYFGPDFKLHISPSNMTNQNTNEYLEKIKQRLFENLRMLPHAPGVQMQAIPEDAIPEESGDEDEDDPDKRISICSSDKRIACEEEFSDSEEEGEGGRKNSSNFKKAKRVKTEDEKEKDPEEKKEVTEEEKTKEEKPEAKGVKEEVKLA

Turning to `Cn1c(N2CCN(S(=O)(=O)c3ccc(C(=O)NO)cc3)CC2)nc2ccccc21` [Compound 9b, 4-[4-(1-methylbenzimidazol-2-yl)piperazin-1-yl]sulfonylbenzenecarbohydroxamic acid], in experiment [1] (compound at 20μM, fluorescence microscopy), the “activation of the silenced GFP gene (GFP expression)” value is “robust GFP expression”. Also, the IC50 in the experiment on HBEC-30KT is over 10 µM; in the experiment on HBEC-34KT, over 10 µM; on recombinant HDAC6 (setting [2]), 0.1 µM; at recombinant HDAC6 (setting [3]), 0.13 ± 0.07 µM; at recombinant HDAC1 it was 3.7 ± 1.7 µM; in the experiment on HCC4018, 6.1 µM. The IC50 in the experiment with HCC4017 stood at 1.49 µM. The “Selectivity Index HDAC1/HDAC6” value on recombinant HDAC6 (Table 4) came out at 28.4. The “Selectivity (HBEC-34KT vs HCC4018)” value in the experiment with HCC4018 was over 1.64. For the same compound, the “Selectivity (HBEC-30KT vs HCC4017)” value in the experiment with HCC4017 is recorded as over 6.71.
In the case of `O=C(NO)c1ccc(S(=O)(=O)N2CCN(c3nc4ccccc4o3)CC2)cc1` [Compound 9c, 4-(4-Benzoxazol-2-yl-piperazin-1-sulfonyl)-N -hydroxy-benzamid], the “GFP induction / activity in the LDR assay” value in experiment [1] is “high level of GFP induction”. In addition, the IC50 with HBEC-30KT was over 10 µM; in the experiment with HBEC-34KT it was over 10 µM; on recombinant HDAC6 (setting [2]), 0.2 µM; at recombinant HDAC6 (setting [3]), 0.22 ± 0.04 µM; at recombinant HDAC1 it was 0.92 ± 0.16 µM; with HCC4018, 5.05 µM. Moreover, the IC50 with HCC4017 was 1.24 µM. Further, at recombinant HDAC6 (Table 4), the “Selectivity Index HDAC1/HDAC6” value is given as 4.3. Moreover, the “Selectivity (HBEC-34KT vs HCC4018)” value in the experiment with HCC4018 is listed as over 1.98. For the same compound, the “Selectivity (HBEC-30KT vs HCC4017)” value in the experiment on HCC4017 is on record as over 8.06.
Turning to `O=C(NO)c1ccc(S(=O)(=O)N2CCN(c3nc4ccccc4s3)CC2)cc1` [Compound 9d, 4-(4-Benzothiazol-2-yl-piperazin-1-sulfonyl)-N -hydroxy-benzamid], in experiment [1], the “GFP induction / activity in the LDR assay” value was “high level of GFP induction”. In addition, the IC50 in the experiment on HBEC-30KT is 5.37 µM; with HBEC-34KT, 8.22 µM; on recombinant HDAC6 (setting [2]) it was 0.1 µM; on recombinant HDAC6 (setting [3]) it was 0.13 ± 0.02 µM; at recombinant HDAC1, 0.9 ± 0.45 µM; in the experiment with HCC4018, 4 µM. Further, the IC50 with HCC4017 amounted to 1.63 µM. For the same compound, the “Selectivity (HBEC-34KT vs HCC4018)” value in the experiment with HCC4018 turned out to be 2.06. Further, the “Selectivity (HBEC-30KT vs HCC4017)” value in the experiment with HCC4017 turned out to be 3.29.

Values taken from paper PMC4689404, “2-Benzazolyl-4-Piperazin-1-Ylsulfonylbenzenecarbohydroxamic Acids as Novel Selective Histone Deacetylase-6 Inhibitors with Antiproliferative Activity” (PLoS ONE, 2015).
